Several values for one entry are separate records, joined by “and”; a condition that tells them apart may be missing. Equal values may be shown once. Activity calls are given as the source filed them.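 How the source made its calls: active means compounds giving half or more protection of infected cells from virus-caused growth loss, again on retest; inactive means the rest.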
System: CEM cells HIV-1 protection, formazan growth assay
Assay: NCI AIDS Antiviral Assay
Conditions: for IC50: measured here: growth of uninfected CEM cells
Method in brief: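 Soluble formazan readout of cell growth; CEM cells ± HIV-1; 5 drug concs. ≥50% protection → retest; ≥50% again = moderately active; reproducible 100% = confirmed active.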

Compound	EC50	IC50 [µM]	outcome
COc1nc2c(c(=O)n1C)NC(C(O)C(O)CO)C=N2 (centres undefined)	182 µM and 174 µM	> 200	
COc1ccc(/C=N/NC(=O)c2ccc(OCc3nc4ccccc4[nH]3)cc2)cc1	178 µM	> 200	
NNC(=S)NNC(N)=O	58.9 µM	> 200	
O=S1(=O)Cc2nc3ccccc3n2C1c1c(F)cccc1F (centres undefined)	29.5 µM	75.9	
CCOC(=O)COc1cccc2c1C(=O)CCO2			inactive
CC(=O)C1(C(=O)C(=[N+]=[N-])S(=O)(=O)c2ccccc2)CC1	> 851 µM	8.32	
C/C(Cl)=N/OC(=O)Nc1ccc(F)c([N+](=O)[O-])c1	> 200 µM	3.24	
COc1c2cc([N+](=O)[O-])cc1CN(C(=O)C(F)(F)F)CCOCCN(C(=O)C(F)(F)F)C2	> 200 µM	> 200	
N#C/C1=C(\N)CCSSSC1	> 457 µM	22.9	
NC1NCCC(=O)N1CCc1c[nH]c2ccccc12 (centres undefined)	> 200 µM	36.3	
Cc1cn(COCCOP(=O)(OCOC(=O)C(C)(C)C)OCOC(=O)C(C)(C)C)c(=O)[nH]c1=O	> 200 µM	110	
Cc1cccc(C)c1N/C(=N\Nc1c([N+](=O)[O-])cccc1[N+](=O)[O-])NC(=O)c1ccccc1C(=O)N/C(=N/Nc1c([N+](=O)[O-])cccc1[N+](=O)[O-])Nc1c(C)cccc1C	> 200 µM	69.2	
O=c1[nH]nc(Nc2ccc(Cl)cc2)c2nnn(-c3ccc([N+](=O)[O-])cc3)c12	> 200 µM	67.6	
O=C1CC(c2ccc(O)c(O)c2)c2c(cc(O)c3c2O[C@H](c2ccc(O)c(O)c2)[C@H](O)C3)O1 (some centres undefined)	> 200 µM	31.6	
CCCCNC(=O)Nc1c(C(N)=O)c2n(c1C(=O)OCC)CCCCC2	> 50.1 µM	> 50.1	
CCOC1OC2O[C@]3(C)CCC4C(C)CCC([C@H]1C)C24OO3 (some centres undefined)			inactive
COC(=O)[C@@H](O)[C@]1(C(=O)OC)C2O[C@@H](OC)[C@@H]1CCCCCC[C@H]2O	> 200 µM	> 200	
O=C(/C=C/c1ccccc1Cl)c1cccc2ccccc12	> 9.33 µM	> 9.33	
CCn1cc(C(=O)O)c(=O)c2ccc(C)nc21			inactive
CCC1=NC(C(F)(F)F)(C(F)(F)F)N=C(/N=C(/N)N(C)C(C(C)C)P(=O)(OC(C)C)OC(C)C)O1 (centres undefined)	> 200 µM	> 200	
CCOc1ccccc1N1C(=O)C(=O)C(c2nc3ccccc3o2)/C(=N\N)C1=O (centres undefined)			inactive
CS(=O)(=O)CC1=Nc2nnc(CCCCCCCc3nnc4n3C(=O)C(CS(C)(=O)=O)=N4)n2C1=O	> 10 µM	> 10	
N#CNC(N)=Nc1ccc(Cl)cc1			inactive
CC(C)(C)[Si](C)(C)OCC1OC(n2cnc3c(N)ncnc32)C(O[Si](C)(C)C(C)(C)C)C1O[Si](C)(C)C(C)(C)C (centres undefined)	> 200 µM	44.7	
CCO/C=C(/C#N)C(=O)OC			inactive
CC(C)NC(=O)OCCS(=O)c1c(Cl)c(Cl)nn1C (centres undefined)	> 200 µM	33.1	
Cn1cc(NC(=O)Nc2cc(C(=O)Nc3cc(C(=O)Nc4ccc(P(=O)(O)O)c5cc(P(=O)(O)O)ccc45)n(C)c3)n(C)c2)cc1C(=O)Nc1cc(C(=O)Nc2ccc(P(=O)(O)O)c3cc(P(=O)(O)O)ccc23)n(C)c1	> 49 µM	31.6	

Compound	EC50	IC50 [µM]	outcome
CC(=O)Oc1ccc(-c2oc3c([C@H]4C=C(C)CC(c5ccc(OC(C)=O)cc5OC(C)=O)[C@@H]4C(=O)c4ccc(OC(C)=O)c(CC=C(C)C)c4O)c(OC(C)=O)cc(O)c3c(=O)c2CC=C(C)C)c(OC(C)=O)c1 (some centres undefined)	> 5.13 µM	> 5.13	
O=C(/C=C/c1ccc(OCCCOc2ccc(/C=C/C(=O)c3ccccc3)cc2)cc1)c1ccccc1	> 10.7 µM	> 10.7	
Cc1ccc(OCC2OC(n3cnc4nc(N)nc(Cl)c43)CC2Oc2ccc(C)cc2)cc1 (centres undefined)	> 200 µM	> 200	
CCOC(=O)NC(S(=O)(=O)O)S(=O)(=O)O	> 200 µM	> 200	
Cc1nc(Cl)c(Cl)c(Cl)n1			inactive
CC(=O)Nc1ccc(C(=O)N[C@@H]2C(=O)N3[C@@H]2SC(C)(C)[C@@H]3C(=O)O)cn1	56.2 µM	75.9	
Cc1cn(CCCCCCOC(=O)NC(CCCN=C(N)N)C(=O)O)c(=O)[nH]c1=O (centres undefined)	> 200 µM	> 200	
O=c1oc2cc(O)ccc2c(O)c1C(c1ccc(/C=C/c2ccccc2)cc1)c1c(O)c2ccc(O)cc2oc1=O	> 200 µM	74.1	
O=S(=O)([O-])c1ccc2c(N=Nc3ccc(/C=C\c4ccc(N=Nc5c([O-])ccc6cc(S(=O)(=O)[O-])ccc56)cc4S(=O)(=O)[O-])c(S(=O)(=O)[O-])c3)c([O-])ccc2c1.[Cu+2].[Cu+2].[Na+]	> 19.1 µM	15.8	
CCOC(=O)NC(Nc1ccc(Cl)cn1)(C(F)(F)F)C(F)(F)F	> 200 µM	> 200	
O=[N+]([O-])/C(Cl)=C(\NCCN/C(C(Cl)=C(Cl)Cl)=C(/Cl)[N+](=O)[O-])C(Cl)=C(Cl)Cl	> 200 µM	61.7	
CC(C)CCCC(C)[C@H]1CCC2C3C[C@@H](CCC=C(c4cc(Cl)c(O)c(C(=O)O)c4)c4cc(Cl)c(O)c(C(=O)O)c4)[C@H]4CCCC[C@]4(C)C3CC[C@@]21C (some centres undefined)	20 µM	> 100	
CN(CCc1ccccn1)/[N+]([O-])=N/O (tested in a mixture with another compound)	> 4680 µM	3470	
C[C@@]12[Se]c3ccccc3[C@]1(C)[Se]c1ccccc12			inactive
CCCCCCCCCCCCCC(=O)NO	> 20.4 µM	> 20.4	
O=C1O/C(=C(/Cl)c2cccc3ccccc23)c2ccccc21			inactive
O=C(CC(c1ccc2c(c1)OCO2)N1CCN(C(CC(=O)c2ccc(Br)cc2)c2ccc3c(c2)OCO3)CC1)c1ccc(Br)cc1 (centres undefined)	> 200 µM	> 200	
C=C1C(OC(=O)C(O)C(c2ccccc2)N(C)C)CC(OC(C)=O)[C@]2(C)C1C[C@@H]1CC(=O)C(C)=C([C@@H](OC(C)=O)C2OC(C)=O)C1(C)C (some centres undefined)	> 93.3 µM	> 93.3	
CC1C2Cc3ccc(O)cc3C1(C)CCN2C (centres undefined)	> 129 µM	> 129	
COC(=O)C1=C(O)C(C(=O)OC)[C@@]2(O)[C@@H](C(=O)OC)CC[C@@H]1[C@@H]2C(=O)OC (some centres undefined)	> 200 µM	38.9	
COC1C2c3cc4c(cc3CC(C#N)(c3ccccc32)N1C(=O)c1ccccc1)OCO4 (centres undefined)			inactive
Nc1ccc2cc(S(=O)(=O)O)cc(O)c2c1N=Nc1ccc(-c2ccc(N=Nc3c(S(=O)(=O)O)cc4cc(S(=O)(=O)O)c(N=Nc5ccc([N+](=O)[O-])cc5)c(N)c4c3O)cc2)cc1			inactive
CC(C)(C)OC(=O)NCCC(N)=S	> 646 µM	174	
COC(=O)c1cc(Cc2cc(C)c(OC)c(C(=O)OC)c2)cc(C)c1OC	> 200 µM	14.5	
COc1ccc(C2=NNc3n[nH]c(=S)n3N2)cc1OC	> 64.6 µM	> 64.6	
CN(C)Cc1cc(N=Nc2ccc(Cl)cc2)cc(CN(C)C)c1O	> 20 µM	8.71	
C#CCN(Cc1ccc2nc(-c3ccccc3)c(Cl)nc2c1)c1ccc(Cl)c(Cl)c1	> 200 µM	> 200	

Compound	EC50	IC50 [µM]	outcome
CCC(C)C(N)CO (centres undefined)	> 200 µM	> 200	
CCCCCC/C=C\CCCCCCCCCc1c(O)c(OC)cc(O)c1CN(C)C	> 200 µM	2.4	
CCCCCCCC(=O)O[C@H]1[C@H]2[C@@H](CC1(C)C)C(=O)[C@]13O[C@H]1C(=O)[C@]1(CO1)[C@]23C	> 162 µM	0.55	
C=C1C(=O)OC2/C=C(\C)CC(O)/C=C(\C)CC(OC(=O)/C(=C\C)COC(C)=O)C12 (centres undefined)	> 115 µM	0.407	
CCC1CC2CN3CCc4c([nH]c5ccc(OC)cc45)C(C(=O)OC)(C2)C13 (centres undefined)			inactive
[O]=[Bi](=[O])[O]CC(O)CO (centres undefined)	> 4.37 µM	> 4.37	
CC1=N/C(=C/c2ccc3c(c2)OCO3)C(=O)O1	> 155 µM	105	
CC(C)(C)C(=O)/C=C/c1cccc(C#N)c1	> 123 µM	6.61	
CCC1CCC2c3c([nH]c4ccc(C)cc34)C3C(=O)N(N(C)C)C(=O)C3C2C1 (centres undefined)	> 200 µM	> 100	
CC(=O)C1=C(C)Cn2c(=O)c3ccccc3c(=O)n2C1	> 95.5 µM	> 95.5	
Cc1cc(Cl)ccc1NC(=O)C1C(=O)C(=O)N(c2ccc(Cl)cc2C)C1=O (centres undefined)			inactive
COc1ccc2cc1Oc1ccc(cc1)CC1c3cc(c(OC)cc3CCN1C)Oc1c3c(cc4c1C(C2)N(C)CC4)OCO3 (centres undefined)			inactive
NC(=O)C(O)C(O)C(N)=O (centres undefined)	> 457 µM	> 457	
C=CC1C(OC2OC(CO)C(O)C(O)C2O)OC=C(C(=O)OC)C1CC=O (centres undefined)	> 646 µM	> 646	
O=C1C(=Cc2ccc([N+](=O)[O-])o2)C(=O)N(CCc2ccccc2)S(=O)(=O)N1CCc1ccccc1	> 5.25 µM	> 5.25	
CC(=O)Oc1ccc(/C=C/C(=O)NCCOC(=O)/C=C/c2ccc(OC(C)=O)c(OC(C)=O)c2)cc1OC(C)=O	> 100 µM	15.1	
Cc1ccc(S(=O)(=O)N2CCCSCCN(S(=O)(=O)c3ccc(C)cc3)CCCSCC2)cc1	> 34.7 µM	> 34.7	
Nc1ccc(S(=O)Cc2ccc(C(=O)O)cc2[N+](=O)[O-])cc1 (centres undefined)	> 776 µM	> 776	
CSc1c(C(=O)Nc2ccc(Cl)cc2)c(N)n(N)c(=O)c1C#N	> 200 µM	40.7	
COc1cc(C2C(C(=O)Nc3ccc([N+](=O)[O-])cc3)=C(C)NC(C)=C2C(=O)Nc2ccc([N+](=O)[O-])cc2)ccc1O	> 9.33 µM	> 9.33	
CC1(C)C(=O)C(C(Cl)(Cl)Cl)=C(Cl)C(=O)C1(Cl)Cl	> 200 µM	25.7	
CCOc1ccc(NC(=O)CC2SC(N)=NC2=O)cc1 (centres undefined)	> 447 µM	> 447	
CC1=C2CCCCCC2(O)OC1=O (centres undefined)	> 646 µM	> 646	
Nc1ncnc2c1ncn2C1OC(CSC(F)(F)F)C(O)C1O (centres undefined)	> 708 µM	112	
CC(C)(C)[Si](C)(C)O[C@@H](C(=O)OC1C=CCCC1)[C@@H](NC(=O)c1ccccc1)c1ccccc1 (some centres undefined)	> 200 µM	12.3	

From PubChem BioAssay AID179 (DTP/NCI, 2004)
